Data set [1] deals with P493B lymphoma cells. Put plainly: Human tumor cell to plasma partitioning assay, single time-point (compounds 1, 7, 12, 16 and DON). In kind it is cell-based. Conditions: 20 μM; for DON release in plasma: human plasma containing P493B cells, 1 h incubation. The method, then:
Compounds 1, 7, 12 and 16 were evaluated for their ability to be taken up in tumor cells and cleaved to give DON. The experimental conditions are described below.
(§1) Tumor cell to plasma partitioning assay was conducted in P493B lymphoma cells (obtained from Dr. Chi Dang, Abramson Cancer Center, University of Pennsylvania, Philadelphia, PA; (REF, Nature 458, 762-765, 2009). In brief, cells were grown in 150 cm^2 cell T-flasks (Falcon™, USA) with RPMI 1640, 1× L-glutamine medium (Corning™ Cellgro™, USA) supplemented with 10% (v/v) FBS (Gibco™, USA), and 1% streptomycin and gentamycin (Gibco™, USA). All cells were incubated at 37° C., in a humidified atmosphere with 5% CO2. The cell confluency was monitored visually using an Axiovert 25 optical microscope equipped with an 3CCD digital camera. Upon confluency, cell suspension was collected and centrifuged at 1000 rpm for 5 min at 25° C. to collect the cell pellet. The supernatant media was decanted, the cell pellet was re-suspended in 20 mL of DPBS (Gibco™, USA), and maintained at 37° C. in order to remove the media traces.
The cell count was determined using an automated cell counter (Bio-Rad, USA) following a 1:1 dilution of an aliquot with 0.4% trypan blue solution (Bio-Rad, USA). The cell suspension in DPBS was centrifuged at 1000 rpm for 5 min at 25° C. to collect the cell pellet. The supernatant DPBS was decanted and the cell pellets were resuspended in human plasma (Innovative Research, USA) to obtain a cell density of 10 million cells/mL of plasma. For analysis of cell partitioning cell-plasma suspension, 1 ml, was pre-incubated at 37° C. for 5 min, following which, compounds were spiked for a final concentration of 20 μM and re-incubated at 37° C. for 1 h. Following incubation, the cell suspension was centrifuged at 10000 rpm for 10 min at 4° C. Supernatant plasma obtained after centrifugation was collected and stored at −80° C. for intact compound and DON analysis. The cell pellet was washed once with ice cold DPBS, followed by centrifugation and stored at −80° C. for intact prodrug and/or DON analysis by LC-MS/MS.
For quantification of DON and intact compound, cell pellets were weighed and suspended in 50 μL of water. To the cell suspension, ice cold methanol with internal standards (losartan: 0.5 μM and glutamate D5: 10 μM) were added in a 5:1 ratio of solvent to cell suspension. The cell samples were vortexed, mixed for 30 sec and centrifuged at 10,000 rpm for 10 min at 4° C. For intact compound bioanalysis, 50 μL of the supernatant obtained after centrifugation was diluted with 50 μL water and transferred to a 250 μL polypropylene vial sealed with a Teflon cap. DON bioanalysis was performed following dabsyl chloride derivatization method with minor modifications (see, Rais et al., 2016; Nedelcovych et al., 2017). Briefly, 200 μL of the supernatant was collected in a separate tube and dried at 45° C. under vacuum for 1 h. To each tube, 50 μL of 0.2 M sodium bicarbonate buffer (pH 9.0) and 100 μL dabsyl chloride stock was added. […] The standard curve for DON quantification in the cell pellet was prepared using naïve P493B cells diluted with water to the equivalent ratio as that of sample.
Briefly, DON was analyzed on a Dionex ultra high-performance system consisting of an analytical pump, and an autosampler coupled with Q Exactive Focus orbitrap mass spectrometer (Thermo Fisher Scientific Inc., Waltham MA). […]

The nature of data set [2]: Dog pharmacokinetic study of compound #2 (IV infusion or SC). In kind it is in vivo. Conditions: intact #2 in plasma, 0.2 mg/kg DON equivalent, male beagle dog; for AUC(0-t): read-out: Intact compound AUC0-t. Here is the method:
The dog pharmacokinetic study was conducted in accordance with the guidelines recommended in Guide for the Care and Use of Laboratory Animals and was approved by the Absorption Systems (San Diego, CA) Institutional Animal Care and Use Committee. Compound #2 was administered to male beagle dogs (n=1/group) as a bolus subcutaneous dose or infused over 1 h at a dose of 0.2 mg/kg DON equivalent. Blood samples were collected from the jugular vein (˜1 mL) via direct venipuncture at 0 min, 5 min (IV only), 15 min, 1 h, 2 h, 4 h, 8 h, and 24 h, post dose, placed into sodium heparin tubes, and maintained on wet ice until processing. Blood samples were centrifuged at a temperature of 4° C., at 3000× g, for 5 minutes. Plasma was collected in tubes and flash frozen. Samples were stored in a freezer set to maintain −60° C. to −80° C. until bioanalysis as described previously (see, Rais et al., 2016; Nedelcovych et al., 2017).

Data set [3] deals with P493B lymphoma cells. Put plainly: Cell proliferation assay (CellTiter 96 AQueous). The class given is cell-based, human. Particulars: for EC50: Homo sapiens, 72 h incubation, read-out: EC50 (cell viability). The method, then:
The cell proliferation assay was performed using the CellTiter 96® AQueous one solution cell proliferation reagent following the manufacturers' instruction (Promega, USA). Briefly, P493B lymphoma cells were plated in 96 well plates at a density of 20,000 cells/well in a final volume of 100 μL growth media. Test compound stocks were made in DMSO and were added to cells in a 1:10 serial dilution with a final concentration of 0.2% DMSO. Cells were allowed to proliferate for 72 h in the presence of test compounds. Thereafter, 20 μL of CellTiter 96™ AQeous (Promega #3580) was added per well and incubated for 2 h. Absorbance was measured at 490 nm.
DON and compound 7 were incubated with P493B lymphoma cells for 72 h, and cell viability was measured.

Data set [4] is described as follows: Compound 7 dog pharmacokinetic study (SC). Conditions: beagle dog plasma, actual dose 2.6 mg/kg (DON eq. 0.8 mg/kg). In kind it is in vivo. The source says:
Compound 7 was administrated to a beagle dog subcutaneously. FIG. 4C is a line graph showing its plasma pharmacokinetics in the dog.

A further data set has as its system P493B tumor cells. Description: Time dependent tumor cell to plasma partitioning of compound 7. In kind it is cell-based, human. Here is the method:
as §1
The cell count was determined using an automated cell counter (Bio-Rad, USA) following a 1:1 dilution of an aliquot with 0.4% trypan blue solution (Bio-Rad, USA). The cell suspension in DPBS was centrifuged at 1000 rpm for 5 min at 25° C. to collect the cell pellet. The supernatant DPBS was decanted and the cell pellets were resuspended in human plasma (Innovative Research, USA) to obtain a cell density of 10 million cells/mL of plasma. […]

Like-named read-outs stand apart in the source and are kept apart here.

Take `CC(=O)NCCCC[C@H](NC(=O)[C@H](Cc1c[nH]c2ccccc12)NC(C)=O)C(=O)N[C@@H](CCC(=O)C=[N+]=[N-])C(=O)OC(C)C` (stereo in doubt) [Compound 12, Isopropyl 2-(6-acetamido-2-(2-acetamido-3-(1H-indol-3-yl)propan-amido)hexanamido)-6-diazo-5-oxohexanoate]: in the data set on P493B lymphoma cells [1], the “DON release in plasma” value is recorded as “minimal DON release”.
For the molecule `CC(=O)NCCCC[C@H](NC(=O)[C@@H]1Cc2ccccc2CN1C(C)=O)C(=O)N[C@@H](CCC(=O)C=[N+]=[N-])C(=O)OC(C)C` (stereo in doubt) [Compound 16, Isopropyl 2-(6-acetamido-2-(2-acetyl-1,2,3,4-tetrahydroisoquinoline-3-carboxamido)hexanamido)-6-diazo-5-oxohexanoate], the “DON release in plasma” value with P493B lymphoma cells [1] is on record as “minimal DON release”. Further, in the data set on P493B lymphoma cells [1] (human plasma with 10 million P493B cells, 37° C., 1 h, compared to DON), the “DON release in tumor cells (tumor cell DON concentrations)” value was “minimal release”.
For the molecule `CC(=O)NCCCC[C@H](NC(=O)OC(C)(C)C)C(=O)N[C@@H](CCC(=O)C=[N+]=[N-])C(=O)OC(C)C` [Compound 1, Isopropyl 2-(6-acetamido-2-((tert-butoxycarbonyl)amino)-hexanamido)-6-diazo-5-oxohexanoate], the “DON release in plasma” value with P493B lymphoma cells [1] is “minimal DON release”.
For `CC(=O)NCCCC[C@H](NC(=O)OCC1c2ccccc2-c2ccccc21)C(=O)N[C@@H](CCC(=O)C=[N+]=[N-])C(=O)OC(C)C` [Compound 2, Isopropyl 2-(2-((((9H-fluoren-9-yl)methoxy)carbonyl)amino)-6-acet-amidohexanamido)-6-diazo-5-oxohexanoate], in data set [2] (IV infusion over 1 h), the highest concentration (Cmax) stood at 6570 nM, the Tmax stood at 0.08 h and the AUC(0-t) was determined as 7.45 µM·h. For the same molecule, in data set [2] (SC bolus), the Cmax was 470 nM, the time to peak (Tmax) worked out at 4 h and the AUC(0-t) was 2.6 µM·h.
For `CC(=O)NCCCC[C@H](NC(=O)C12CC3CC(CC(C3)C1)C2)C(=O)N[C@@H](CCC(=O)C=[N+]=[N-])C(=O)OC(C)C` [Compound 7], in the data set with P493B lymphoma cells [3] (72 h, EC50 compared to DON), the “improvement of tumor cell killing vs DON” value was “two-fold”. In addition, in the data set with P493B lymphoma cells [3], the half-maximal effective concentration (EC50) was found to be 5 ± 0.12 µM. Also, the AUC in data set [4] (N = 1, read-out: AUC Cpd 7) was 2.1 µM·h. The maximum concentration (Cmax) in data set [4] (N = 1, read-out: Cmax Cpd 7) turned out to be 640 nM. Also, the “DON release in plasma” value in the data set on P493B lymphoma cells [1] was “minimal DON release”. Besides, in the data set with P493B tumor cells, the “intact compound observed in tumor cells” value was below 1%.
Take `[N-]=[N+]=CC(=O)CC[C@H](N)C(=O)O` [DON, 6-diazo-5-oxo-L-norleucine, reference compound]: the EC50 in the data set on P493B lymphoma cells [3] amounted to 10 ± 0.11 µM.

One may read the Cmax as the highest concentration seen after dosing. One may read the Tmax as the time from dosing to the highest level. For orientation: EC50 means the concentration giving half of the maximal effect. As usually defined, the AUC is the area under the concentration-time curve, a measure of exposure.

Values taken from patent US12195419B2, “Glutamine antagonists and uses thereof” (The Johns Hopkins University, priority 2017, dated 2025).
